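1) Cells in 96-well plates. 2) Compound, 48 h, 5 concentrations. 3) Linear interpolation between surrounding doses. 4) Unreached endpoint = highest concentration. Here, GI50 denotes the concentration required for 50% inhibition of growth. TGI is the concentration that stops growth completely.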
Key:
Assay in all cases: growth of human tumour cells (NCI), 48 h
SK-MEL-28 melanoma = tested on: SK-MEL-28 melanoma
HCT-116 colon = tested on: HCT-116 colon
MDA-MB-231 breast = tested on: MDA-MB-231 breast
DU-145 prostate = tested on: DU-145 prostate
CAKI-1 renal = tested on: CAKI-1 renal
786-0 renal = tested on: 786-0 renal
UACC-257 melanoma = tested on: UACC-257 melanoma
NCI-H522 lung = tested on: NCI-H522 lung
MDA-MB-435 = tested on: MDA-MB-435
OVCAR-3 ovarian = tested on: OVCAR-3 ovarian
OVCAR-4 ovarian = tested on: OVCAR-4 ovarian
SW-620 colon = tested on: SW-620 colon
NCI/ADR-RES ovarian = tested on: NCI/ADR-RES ovarian
HL-60(TB) leukemia = tested on: HL-60(TB) leukemia
NCI-H460 lung = tested on: NCI-H460 lung
SF-295 CNS = tested on: SF-295 CNS
T-47D breast = tested on: T-47D breast
HOP-92 NSCLC = tested on: HOP-92 NSCLC
HOP-62 NSCLC = tested on: HOP-62 NSCLC
MOLT-4 leukemia = tested on: MOLT-4 leukemia
RXF 393 renal = tested on: RXF 393 renal
SF-539 CNS = tested on: SF-539 CNS
OVCAR-8 ovarian = tested on: OVCAR-8 ovarian
SK-MEL-5 melanoma = tested on: SK-MEL-5 melanoma
MALME-3M melanoma = tested on: MALME-3M melanoma
UO-31 renal = tested on: UO-31 renal
COLO 205 colon = tested on: COLO 205 colon
SF-268 CNS = tested on: SF-268 CNS
CCRF-CEM leukemia = tested on: CCRF-CEM leukemia
HCT-15 colon = tested on: HCT-15 colon
SNB-75 CNS = tested on: SNB-75 CNS
U251 CNS = tested on: U251 CNS
SK-OV-3 ovarian = tested on: SK-OV-3 ovarian
A498 renal = tested on: A498 renal
PC-3 prostate = tested on: PC-3 prostate
MCF7 breast = tested on: MCF7 breast
KM12 colon = tested on: KM12 colon
ACHN renal = tested on: ACHN renal
SN12C renal = tested on: SN12C renal
SNB-19 CNS = tested on: SNB-19 CNS
SK-MEL-2 melanoma = tested on: SK-MEL-2 melanoma
HS 578T breast = tested on: HS 578T breast
NCI-H226 lung = tested on: NCI-H226 lung
HT29 colon = tested on: HT29 colon
SR leukemia = tested on: SR leukemia
K-562 leukemia = tested on: K-562 leukemia
OVCAR-5 ovarian = tested on: OVCAR-5 ovarian
RPMI-8226 leukemia = tested on: RPMI-8226 leukemia
NCI-H23 lung = tested on: NCI-H23 lung
BT-549 breast = tested on: BT-549 breast
A549 NSCLC = tested on: A549 NSCLC
UACC-62 melanoma = tested on: UACC-62 melanoma
M14 melanoma = tested on: M14 melanoma
IGROV1 ovarian = tested on: IGROV1 ovarian
HCC-2998 colon = tested on: HCC-2998 colon
LOX IMVI melanoma = tested on: LOX IMVI melanoma

For O=C(CI)OCC(COC(=O)CI)OC(=O)CI, the GI50 (SK-MEL-28 melanoma) was 5.54 µM, the TGI (SK-MEL-28 melanoma) was 16 µM and the GI50 (HCT-116 colon) was 1.67 µM. It also gave a TGI (HCT-116 colon) of 3.41 µM, a GI50 (MDA-MB-231 breast) of 9.3 µM and a TGI (MDA-MB-231 breast) of 24.6 µM. For the same molecule, the GI50 (DU-145 prostate) was 8.62 µM, the TGI (DU-145 prostate) was 22.3 µM and the GI50 (CAKI-1 renal) was 1.96 µM. The TGI (CAKI-1 renal) was 3.91 µM, the GI50 (786-0 renal) was 2.38 µM and the TGI (786-0 renal) was 6.28 µM. The GI50 (UACC-257 melanoma) was 4.06 µM, the TGI (UACC-257 melanoma) was 15.4 µM and the GI50 (NCI-H522 lung) was 0.506 µM. The TGI (NCI-H522 lung) was 1.27 µM, the GI50 (MDA-MB-435) was 10.6 µM and the TGI (MDA-MB-435) was 23.5 µM. For the same molecule, the GI50 (OVCAR-3 ovarian) was 2.07 µM, the TGI (OVCAR-3 ovarian) was 3.94 µM and the GI50 (OVCAR-4 ovarian) was 1.8 µM. The TGI (OVCAR-4 ovarian) was 4.3 µM, the GI50 (SW-620 colon) was 1.92 µM and the TGI (SW-620 colon) was 4 µM. The GI50 (NCI/ADR-RES ovarian) was 18.4 µM, the TGI (NCI/ADR-RES ovarian) was 45.3 µM and the GI50 (HL-60(TB) leukemia) was 1.99 µM. For the same molecule, the TGI (HL-60(TB) leukemia) was 4.19 µM, the GI50 (NCI-H460 lung) was 18 µM and the TGI (NCI-H460 lung) was 36.9 µM. It also gave a GI50 (SF-295 CNS) of 16.3 µM, a TGI (SF-295 CNS) of 32 µM and a GI50 (T-47D breast) of 1.98 µM. The TGI (T-47D breast) was 4.46 µM, the GI50 (HOP-92 NSCLC) was 1.86 µM and the TGI (HOP-92 NSCLC) was 4.03 µM. For the same molecule, the GI50 (HOP-62 NSCLC) was 10.8 µM, the TGI (HOP-62 NSCLC) was 27.8 µM and the GI50 (MOLT-4 leukemia) was 2.06 µM. For the same molecule, the TGI (MOLT-4 leukemia) was 4.57 µM, the GI50 (RXF 393 renal) was 2.4 µM and the TGI (RXF 393 renal) was 7.55 µM. The GI50 (SF-539 CNS) was 13.7 µM, the TGI (SF-539 CNS) was 27.2 µM and the GI50 (OVCAR-8 ovarian) was 2.53 µM. It also gave a TGI (OVCAR-8 ovarian) of 6.92 µM, a GI50 (SK-MEL-5 melanoma) of 13.8 µM and a TGI (SK-MEL-5 melanoma) of 27.6 µM. The GI50 (MALME-3M melanoma) was 1.6 µM, the TGI (MALME-3M melanoma) was 3.29 µM and the GI50 (UO-31 renal) was 1.39 µM. The TGI (UO-31 renal) was 2.84 µM, the GI50 (COLO 205 colon) was 1.88 µM and the TGI (COLO 205 colon) was 3.52 µM. The GI50 (SF-268 CNS) was 13.2 µM, the TGI (SF-268 CNS) was 29.5 µM and the GI50 (CCRF-CEM leukemia) was 1.73 µM. It also gave a TGI (CCRF-CEM leukemia) of 3.95 µM, a GI50 (HCT-15 colon) of 1.73 µM and a TGI (HCT-15 colon) of 3.61 µM. It also gave a GI50 (SNB-75 CNS) of 13.7 µM, a TGI (SNB-75 CNS) of 29.3 µM and a GI50 (U251 CNS) of 11.9 µM. The TGI (U251 CNS) was 25.2 µM, the GI50 (SK-OV-3 ovarian) was 17.3 µM and the TGI (SK-OV-3 ovarian) was 31.1 µM. For the same molecule, the GI50 (A498 renal) was 10.9 µM, the TGI (A498 renal) was 26.7 µM and the GI50 (PC-3 prostate) was 6.46 µM. The TGI (PC-3 prostate) was 20.7 µM, the GI50 (MCF7 breast) was 3.38 µM and the TGI (MCF7 breast) was 14.8 µM. It also gave a GI50 (KM12 colon) of 11.7 µM, a TGI (KM12 colon) of 26.8 µM and a GI50 (ACHN renal) of 1.84 µM. It also gave a TGI (ACHN renal) of 3.37 µM, a GI50 (SN12C renal) of 4.01 µM and a TGI (SN12C renal) of 15 µM. For the same molecule, the GI50 (SNB-19 CNS) was 16.5 µM, the TGI (SNB-19 CNS) was 32.7 µM and the GI50 (SK-MEL-2 melanoma) was 10.3 µM. It also gave a TGI (SK-MEL-2 melanoma) of 25.5 µM, a GI50 (HS 578T breast) of 4.88 µM and a TGI (HS 578T breast) of 27.7 µM. The GI50 (NCI-H226 lung) was 15.6 µM, the TGI (NCI-H226 lung) was 38.8 µM and the GI50 (HT29 colon) was 2.92 µM. The TGI (HT29 colon) was 8.91 µM, the GI50 (SR leukemia) was 2.36 µM and the TGI (SR leukemia) was 7.58 µM. It also gave a GI50 (K-562 leukemia) of 2.39 µM, a TGI (K-562 leukemia) of 5.73 µM and a GI50 (OVCAR-5 ovarian) of 16.4 µM. The TGI (OVCAR-5 ovarian) was 32.8 µM, the GI50 (RPMI-8226 leukemia) was 2.22 µM and the TGI (RPMI-8226 leukemia) was 4.96 µM. The GI50 (NCI-H23 lung) was 5.36 µM, the TGI (NCI-H23 lung) was 19.6 µM and the GI50 (BT-549 breast) was 4.56 µM. It also gave a TGI (BT-549 breast) of 15.7 µM, a GI50 (A549 NSCLC) of 16.8 µM and a TGI (A549 NSCLC) of 35.5 µM. The GI50 (UACC-62 melanoma) was 3.05 µM, the TGI (UACC-62 melanoma) was 12.3 µM and the GI50 (M14 melanoma) was 7.57 µM. For the same molecule, the TGI (M14 melanoma) was 22 µM, the GI50 (IGROV1 ovarian) was 1.75 µM and the TGI (IGROV1 ovarian) was 3.5 µM. It also gave a GI50 (HCC-2998 colon) of 16.3 µM, a TGI (HCC-2998 colon) of 31.3 µM and a GI50 (LOX IMVI melanoma) of 1.03 µM. For the same molecule, the TGI (LOX IMVI melanoma) was 3 µM.

— PubChem BioAssay (NCI)
